This passage reports IC50 results from patent publication US9604975B2, “Indolyl-pyridone derivatives having checkpoint kinase 1 inhibitory activity” (Vernalis (R&D) Ltd., priority 2009, dated 2017).

The IC50 is the concentration needed to halve the response being measured.

The structures appear in SMILES notation.

The target in the test is T1, CHK1 (Homo sapiens, UniProt O14757).
T1 construct: His; purchased Invitrogen
T1 sequence (O14757 1-476): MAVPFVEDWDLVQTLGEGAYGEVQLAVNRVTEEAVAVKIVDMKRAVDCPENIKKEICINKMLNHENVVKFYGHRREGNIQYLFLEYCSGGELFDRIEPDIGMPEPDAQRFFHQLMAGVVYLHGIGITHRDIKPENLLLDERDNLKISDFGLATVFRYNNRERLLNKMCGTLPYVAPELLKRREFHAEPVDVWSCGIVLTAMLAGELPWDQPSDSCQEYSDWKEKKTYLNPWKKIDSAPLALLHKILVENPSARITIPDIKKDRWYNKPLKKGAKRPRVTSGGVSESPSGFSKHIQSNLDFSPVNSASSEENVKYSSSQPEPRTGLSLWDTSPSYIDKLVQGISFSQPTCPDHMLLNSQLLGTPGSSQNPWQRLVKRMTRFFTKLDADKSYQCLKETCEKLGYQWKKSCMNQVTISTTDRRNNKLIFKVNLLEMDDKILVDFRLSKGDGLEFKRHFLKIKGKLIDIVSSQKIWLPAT
As to the kind of experiment: CHK1 Enzyme Assay (phosphorylation of Chktide peptide, 33P-ATP filter assay). The class given is biochemical. Conditions: 12.5 nM His-CHK1, 0.01 mM ATP, 40 minutes at 30° C.; read-out: CHK1 Enzyme Activity (IC50 range). In a few lines: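 His-CHK1 (12.5 nM) phosphorylating 14.8 μM Chktide with 0.01 mM ATP plus 33P-γ-ATP, in 50 mM Hepes-NaOH pH 7.5 with 0.1 mg/mL BSA. Incubated with inhibitor for 40 min at 30 °C. Stopped with phosphoric acid; phosphopeptide captured on filter and counted by scintillation.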
Take `CN(C)CC1(COc2ccc3[nH]c(-c4cc(NC(=O)c5cnn(Cc6ccccc6)c5)c[nH]c4=O)cc3c2)CC1` [Example 188, 1-Benzyl-1H-pyrazole-4-carboxylic acid {5-[5-(1-dimethylaminomethyl-cyclopropylmethoxy)-1H-indol-2-yl]-6-oxo-1,6-dihydro-pyridin-3-yl}-amide]: the IC50 was less than 100 nM. As for `O=C(Nc1cnn(Cc2ccccc2F)c1)c1c[nH]c(=O)c(-c2cc3ccccc3[nH]2)c1` [Example 8, 5-(1H-Indol-2-yl)-6-oxo-1,6-dihydro-pyridine-3-carboxylic acid [1-(2-fluoro-benzyl)-1H-pyrazol-4-yl]-amide], the IC50 lay in the range of 100 to 500 nM. Turning to `O=C(Nc1c[nH]c(=O)c(-c2cc3cc(CN4CCCC4)ccc3[nH]2)c1)c1cnn(Cc2ccccc2)c1` [Example 50, 1-Benzyl-1H-pyrazole-4-carboxylic acid [6-oxo-5-(5-pyrrolidin-1-ylmethyl-1H-indol-2-yl)-1,6-dihydro-pyridin-3-yl]-amide], the half-inhibitory concentration (IC50) is less than 100 nM. `Cc1[nH]c(=O)c(-c2cc3ccccc3[nH]2)cc1NC(=O)c1cnn(Cc2cccc(F)c2)c1` [Example 30, 1-(3-Fluoro-benzyl)-1H-pyrazole-4-carboxylic acid [5-(1H-indol-2-yl)-2-methyl-6-oxo-1,6-dihydro-pyridin-3-yl]-amide]: the IC50 fell in the range of 100 to 500 nM. Turning to `O=C(Nc1c[nH]c(=O)c(-c2cc3ccccc3[nH]2)c1)c1cnn(Cc2cccc(Cl)c2)c1` [Example 27, 1-(3-Chloro-benzyl)-1H-pyrazole-4-carboxylic acid [5-(1H-indol-2-yl)-6-oxo-1,6-dihydro-pyridin-3-yl]-amide], the IC50 is less than 100 nM. The same measure for `CCc1cccc(Cn2cc(C(=O)Nc3c[nH]c(=O)c(-c4cc5cc(OCCN6CCN(C)CC6)ccc5[nH]4)c3)cn2)c1` [Example 133, 1-(3-Ethyl-benzyl)-1H-pyrazole-4-carboxylic acid (5-{5-[2-(4-methyl-piperazin-1-yl)-ethoxy]-1H-indol-2-yl}-6-oxo-1,6-dihydro-pyridin-3-yl)-amide]: less than 100 nM.

Consider `CN1CCN(Cc2ccc3[nH]c(-c4cc(NC(=O)c5cnn(Cc6ccccc6)c5)c[nH]c4=O)cc3c2)CC1` [Example 58, 1-Benzyl-1H-pyrazole-4-carboxylic acid {5-[5-(4-methyl-piperazin-1-ylmethyl)-1H-indol-2-yl]-6-oxo-1,6-dihydro-pyridin-31}-amide], for which the 50% inhibitory concentration (IC50) is less than 100 nM. The figure for `Cc1ccc(Cn2cc(C(=O)Nc3c[nH]c(=O)c(-c4cc5ccccc5[nH]4)c3)cn2)cc1` [Example 29, 1-(4-Methyl-benzyl)-1H-pyrazole-4-carboxylic acid [5-(1H-indol-2-yl)-6-oxo-1,6-dihydro-pyridin-3-yl]-amide] is less than 100 nM; for `O=C(Nc1c[nH]c(=O)c(-c2cc3cc(CN4CCN(CCO)CC4)ccc3[nH]2)c1)c1cnn(Cc2ccc(Cl)cc2)c1` [Example 66, 1-(4-Chloro-benzyl)-1H-pyrazole-4-carboxylic acid (5-{5-[4-(2-hydroxy-ethyl)-piperazin-1-ylmethyl]-1H-indol-2-yl}-6-oxo-1,6-dihydro-pyridin-3-yl)-amide] it is less than 100 nM. On to `O=C(Nc1c[nH]c(=O)c(-c2cc3cc(CN4CCCCC4)ccc3[nH]2)c1)c1cnn(CCc2ccc(F)cc2)c1` [Example 95, 1-[2-(4-Fluoro-phenyl)-ethyl]-1H-pyrazole-4-carboxylic acid [6-oxo-5-(5-piperidin-1-ylmethyl-1H-indol-2-yl)-1,6-dihydro-pyridin-3-yl]-amide], for which the IC50 is less than 100 nM. Take `O=C(Nc1cnn(Cc2cc(F)cc(F)c2)c1)c1c[nH]c(=O)c(-c2cc3ccccc3[nH]2)c1` [Example 13, 5-(1H-Indol-2-yl)-6-oxo-1,6-dihydro-pyridine-3-carboxylic acid [1-(3,5-difluoro-benzyl)-1H-pyrazol-4-yl]-amide]: the 50% inhibitory concentration (IC50) was less than 100 nM. As for `O=C(Nc1c[nH]c(=O)c(-c2cc3cc(CN4CCCC4)ccc3[nH]2)c1)c1cnn(Cc2ccc(Cl)cc2)c1` [Example 55, 1-(4-Chloro-benzyl)-1H-pyrazole-4-carboxylic acid [6-oxo-5-(5-pyrrolidin-1-ylmethyl-1H-indol-2-yl)-1,6-dihydro-pyridin-3-yl]-amide], the IC50 is less than 100 nM. The same measure for `CN(Cc1ccc2[nH]c(-c3cc(NC(=O)c4cnn(Cc5ccccc5)c4)c[nH]c3=O)cc2c1)C1CCCCC1` [Example 77]: less than 100 nM; for `O=C(Nc1cnn(Cc2ccc(F)cc2)c1)c1c[nH]c(=O)c(-c2cc3ccccc3[nH]2)c1` [Example 10, 5-(1H-Indol-2-yl)-6-oxo-1,6-dihydro-pyridine-3-carboxylic acid [1-(4-fluoro-benzyl)-1H-pyrazol-4-yl]-amide]: less than 100 nM; for `O=C(Nc1cnn(Cc2ccc(F)nc2)c1)c1c[nH]c(=O)c(-c2cc3ccccc3[nH]2)c1` [Example 110, 5-(1H-Indol-2-yl)-6-oxo-1,6-dihydro-pyridine-3-carboxylic acid [1-(6-fluoro-pyridin-3-ylmethyl)-1H-pyrazol-4-yl]-amide]: 100 to 500 nM. `O=C(Nc1c[nH]c(=O)c(-c2cc3cc(CN4CCC(F)CC4)ccc3[nH]2)c1)c1cnn(Cc2ccc(F)cc2)c1` [Example 81, 1-(4-Fluoro-benzyl)-1H-pyrazole-4-carboxylic acid {5-[5-(4-fluoro-piperidin-1-ylmethyl)-1H-indol-2-yl]-6-oxo-1,6-dihydro-pyridin-3-yl}-amide]: the IC50 is less than 100 nM.

For the compound `Cc1ccc(Cn2cc(C(=O)Nc3c[nH]c(=O)c(-c4cc5cc(OCCCN6CCOCC6)ccc5[nH]4)c3)cn2)cc1` [Example 117, 1-(4-Methyl-benzyl)-1H-pyrazole-4-carboxylic acid {5-[5-(3-morpholin-4-yl-propoxy)-1H-indol-2-yl]-6-oxo-1,6-dihydro-pyridin-3-yl}-amide], the IC50 was less than 100 nM.

As for `C[C@@H]1CN(Cc2ccc3[nH]c(-c4cc(NC(=O)c5cnn([C@@H](C)c6ccccc6)c5)c[nH]c4=O)cc3c2)C[C@H](C)O1` [Example 163, 1-((S)-1-Phenyl-ethyl)-1H-pyrazole-4-carboxylic acid {5-[5-(cis-2,6-dimethyl-morpholin-4-ylmethyl)-1H-indol-2-yl]-6-oxo-1,6-dihydro-pyridin-3-yl}-amide], the IC50 was less than 100 nM.

For the compound `CN(C)CCCOc1ccc2[nH]c(-c3cc(NC(=O)c4cnn(Cc5ccc(C(C)(C)C)cc5)c4)c[nH]c3=O)cc2c1` [Example 156, 1-(4-tert-butylbenzyl)-1H-pyrazole-4-carboxylic acid {5-[5-(3-dimethylaminopropoxy)-1H-indol-2-yl)-6-oxo-1,6-dihydropyridin-3-yl}-amide], the IC50 was less than 100 nM. On to `O=C(Nc1cnn(Cc2ccc(Cl)cc2)c1)c1c[nH]c(=O)c(-c2cc3ccccc3[nH]2)c1` [Example 12, 5-(1H-Indol-2-yl)-6-oxo-1,6-dihydro-pyridine-3-carboxylic acid [1-(4-chloro-benzyl)-1H-pyrazol-4-yl]-amide], for which the IC50 lay within 100 to 500 nM. `CN(C)CCOc1ccc2[nH]c(-c3cc(NC(=O)c4cnn(Cc5ccccc5)c4)c[nH]c3=O)cc2c1` [Example 142, 1-Benzyl-1H-pyrazole-4-carboxylic acid {5-[5-(2-dimethylamino-ethoxy)-1H-indol-2-yl]-6-oxo-1,6-dihydro-pyridin-3-yl}-amide]: the IC50 is less than 100 nM.

Consider `O=C(Nc1c[nH]c(=O)c(-c2cc3cc(CN4CCCCC4)ccc3[nH]2)c1)c1cnn(Cc2ccc(F)cc2)c1` [Example 80, 1-(4-Fluoro-benzyl)-1H-pyrazole-4-carboxylic acid [6-oxo-5-(5-piperidin-1-ylmethyl-1H-indol-2-yl)-1,6-dihydro-pyridin-3-yl]-amide], for which the IC50 is less than 100 nM. The figure for `C[C@H](c1ccccc1)n1cc(C(=O)Nc2c[nH]c(=O)c(-c3cc4cc(CN5CCC(F)CC5)ccc4[nH]3)c2)cn1` [Example 169, 1-((R)-1-Phenyl-ethyl)-1H-pyrazole-4-carboxylic acid {5-[5-(4-fluoro-piperidin-1-ylmethyl)-1H-indol-2-yl]-6-oxo-1,6-dihydro-pyridin-3-yl}-amide] is less than 100 nM. For the compound `Cc1ccc(Cn2cc(C(=O)Nc3c[nH]c(=O)c(-c4cc5cc(OCCCN(C)C)ccc5[nH]4)c3)cn2)cc1` [Example 122, 1-(4-Methyl-benzyl)-1H-pyrazole-4-carboxylic acid {5-[5-(3-dimethylamino-propoxy)-1H-indol-2-yl]-6-oxo-1,6-dihydro-pyridin-3-yl}-amide], the IC50 is less than 100 nM. `O=C(Nc1cnn(Cc2cccc(F)c2)c1)c1c[nH]c(=O)c(-c2cc3ccccc3[nH]2)c1` [Example 9, 5-(1H-Indol-2-yl)-6-oxo-1,6-dihydro-pyridine-3-carboxylic acid [1-(3-fluoro-benzyl)-1H-pyrazol-4-yl]-amide]: the IC50 was less than 100 nM. In the case of `Cc1ccc(Cn2cc(C(=O)Nc3c[nH]c(=O)c(-c4cc5cc(CN6CCCC6)ccc5[nH]4)c3)cn2)cc1` [Example 41, 1-(4-Methyl-benzyl)-1H-pyrazole-4-carboxylic acid [6-oxo-5-(5-pyrrolidin-1-ylmethyl-1H-indol-2-yl)-1,6-dihydro-pyridin-3-yl]-amide], the IC50 is less than 100 nM.
